For test [1], the target named is CRF-stimulated adenylate cyclase. The test can be described thus: Inhibition of CRF-stimulated adenylate cyclase activity (rat frontal cortex). It is filed as biochemical. Conditions: 1 μM oCRF, 37° C., 10 minutes. The source says: CRF antagonist activity is established by the ability of the compounds to antagonize CRF-stimulated adenylate cyclase activity, it having been established that CRF receptors are coupled to a guanine nucleotide regulatory protein that activates adenylate cyclase [G. Aguilera et al., Neuroendocrinology, 43, 79 (1986); G. Battaglia et al., Synapse, 1, 572 (1987)].
Male Sprague-Dawley rats (175-250 g) were sacrificed by decapitation, the frontal cortex was dissected and homogenized in 30 volumes (w/v) of ice-cold buffer (50 mM Tris HCl, 10 mM MgCl2, 2 mM EGTA; pH 7.2 at 22° C.). The homogenate was centrifuged at 40,000×g for 3 minutes (4° C.), the supernatant discarded and the pellet resuspended in original volume of fresh homogenization buffer. Following centrifugation at 40,000×g for 30 minutes, the resulting pellet was suspended to a tissue concentration of 20 mg original wet weight of tissue per mL (approximately 40-60 μg protein/mL). For determination of basal adenylate cyclase activity, assays are carried out at 37° C. for 10 minutes in 250 μL of buffer containing 100 mM Tris HCl, 10 mM MgCl2, 0.4 mM EGTA, 0.1% BSA, 1 mM isobutylmethylxanthine (IBMX), 3 units/tube phosphocreatine kinase, 5 mM creatine phosphate, 100 μM guanosine. Maximal stimulation of adenylate cyclase activity was accomplished by the addition of 10^-6 M oCRF. Stimulated enzyme activity generally represented a 75-95% increase over basal levels. Reactions were initiated by the addition of tissue and terminated by the addition of 150 μL of 50 mM Tris HCl, 45 mM ATP, 2% sodium dodecyl sulfate (SDS), and [^3 H] cAMP (approximately 40,000 dpm). The [^3 H]cAMP was added to each assay tube to monitor recovery of cAMP during subsequent chromatography steps. Separation of [^32 P]cAMP from [^32 P]ATP was accomplished by sequential elution over Dowex and alumina columns. The eluate (4 mL) was collected in 20 mL scintillation vials to which 8 mL of Beckman EP fluor was added. Vials were shaken for 30 minutes prior to measuring ^3 H and ^32 P by scintillation counting. All data were fed directly from the liquid scintillation counter via RS232 port to a VAX 8300 computer. Individual data points were expressed as pmoles of cAMP formed/10 minutes/mg protein. Protein content of tissue samples was measured using the BioRad method with bovine serum albumin serving as the standard.
Determination of antagonist activity was accomplished by addition of at least six concentrations of the compound (10^-8 -10^-4 M), evaluated in triplicate, in the presence of a maximally stimulating concentration of oCRF (1 μM). IC50 values were derived from a log-logit transformation of the data on a Vax 8300.

The target of a further test is T1, CRF receptor (Rattus norvegicus, UniProt P35353).
T1 construct: the cerebral cortex was removed and the tissue homogenized; from tissue; host or cells: cerebral cortex membranes of male Sprague-Dawley rats
T1 sequence (P35353 24-415): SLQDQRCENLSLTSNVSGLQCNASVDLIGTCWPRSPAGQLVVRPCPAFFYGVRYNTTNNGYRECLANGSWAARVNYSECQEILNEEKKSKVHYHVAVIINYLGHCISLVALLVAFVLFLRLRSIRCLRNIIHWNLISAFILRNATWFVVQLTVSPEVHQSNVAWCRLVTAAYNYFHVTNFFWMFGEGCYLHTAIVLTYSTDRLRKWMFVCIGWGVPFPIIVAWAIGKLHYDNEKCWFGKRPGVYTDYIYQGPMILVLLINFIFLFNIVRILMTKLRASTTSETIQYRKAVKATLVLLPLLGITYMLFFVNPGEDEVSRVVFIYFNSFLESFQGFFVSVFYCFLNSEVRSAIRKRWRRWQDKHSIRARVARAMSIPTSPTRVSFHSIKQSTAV
The test can be described thus: In vitro receptor binding: inhibition of specific binding of [125I]tyrosine-oCRF to rat cerebral cortex membranes. To be noted: [125I]Tyr-oCRF 50-100 pM, 2 hours at room temperature. The protocol:
The potency of the compounds of the invention as inhibitors of the specific binding of radiolabeled CRF to rat cerebral cortex membranes was examined using a standard in vitro radioligand binding technique. […] The homogenate was centrifuged at 48,000×g for 10 minutes at 4° C. The supernatant was removed, the tissue pellet suspended in the original volume of fresh homogenization buffer using a Polytron and centrifuged as before. […] Incubation buffer consists of 50 mM Hepes (pH 7.0 at 22° C.) containing 10 mM MgCl2, 2 mM EGTA, 0.1 mM bacitracin, 100 KIU (kallikrein inhibitor units)/mL aprotinin and 0.1% BSA (bovine serum albumin). […] Nonspecific binding was determined in the presence of 1 μM oCRF. The binding reaction was allowed to proceed for 2 hours at room temperature. Bound radioligand was separated from the incubation medium by centrifugation in a Beckman microfuge for 5 minutes at 12,000×g. The supernatant was aspirated and the resulting pellet was washed with 1 mL of cold phosphate buffered saline (pH 7.2) containing 0.01% of Triton X-100.
Tyr-oCRF to rat cortical membranes was determined on at least three separate occasions using 8-10 concentrations of each compound and utilizing triplicate incubations. The IC50 and apparent Hill coefficient for each compound were calculated using a computer-assisted log-logit analysis.

The mark [2] stands for this setting: Table I, Formula I, read-out: Inhibition of CRF Binding, Rat Cerebral Cortex Membrane, IC50.
[3] abbreviates: Table II, Formula II (disulfides), read-out: Inhibition of CRF Binding, Rat Cerebral Cortex Membrane, IC50.
The mark [4] stands for this setting: Inhibition of CRF Binding, Rat Cerebral Cortex Membrane, IC50, Table I, Formula I.
[5] abbreviates: Table II, Formula II (disulfides).

Where a name gives a salt, the structure may show the parent alone. Read-outs that look alike come from different tables or passages of the source.

A word on the IC50: it is the point on the concentration scale where inhibition reaches its midpoint.

For the molecule `CCn1c(C)c(SC#N)c(=O)n1-c1ccc(S(C)(=O)=O)cc1` [Formula I: 4-CH3 SO2 Ph, C2 H5, CH3, SCN, 2-ethyl-3-methyl-5-oxo-1-(4-methylsulfonylphenyl)-3-pyrazolin-4-yl thiocyanate], the IC50 in test [1] (Table I, Formula I) was determined as 11.4 µM; on CRF receptor (setting [2]) it was 17 µM.

For the molecule `Cc1c(SSc2c(C)n(C)n(-c3ccc(I)cc3)c2=O)c(=O)n(-c2ccc(I)cc2)n1C` [Formula II: 4-IPh, CH3, CH3, 2,3-dimethyl-5-oxo-1-(4-iodophenyl)-3-pyrazolin-4-yl disulfide], the IC50 at CRF receptor (setting [3]) was 5.1 µM.

For the molecule `Cc1c(SC#N)c(=O)n(C)n1Cc1ccccc1` [2-benzyl-1,3-dimethyl-5-oxo-3-pyrazolin-4-yl thiocyanate, hemifumarate], the IC50 in test [1] (Table I, Formula I) was 40.1 µM; on CRF receptor (setting [4]) it was 33.6 µM.

As to `CCn1c(C)c(SC#N)c(=O)n1-c1ccc(Cl)c(Cl)c1` [Formula I: 3,4 Cl2 Ph, C2 H5, CH3, SCN, 2-ethyl-3-methyl-5-oxo-1-(3,4-dichlorophenyl)-3-pyrazolin-4-yl thiocyanate], the IC50 in test [1] (Table I, Formula I) is 1.4 µM; at CRF receptor (setting [4]) it was 4.9 µM.

In the case of `Cc1c(SSc2c(C)n(C)n(-c3cccc(Cl)n3)c2=O)c(=O)n(-c2cccc(Cl)n2)n1C` [Formula II: 6-Cl-2-Pyr, CH3, CH3, 2,3-dimethyl-5-oxo-1-(6-chloro-2-pyridyl)-3-pyrazolin-4-yl disulfide], on CRF receptor (setting [3]), the IC50 is 4.3 µM.

With `Cn1c(N)c(SC#N)c(=O)n1-c1ccccc1` [Formula I: Ph, CH3, NH2, SCN, 3-amino-2-methyl-5-oxo-1-phenyl-3-pyrazolin-4-yl thiocyanate], the IC50 is 49.6 µM in test [1] (Table I, Formula I) and 14.4 µM on CRF receptor (setting [2]).

As for `CCc1c(SC#N)c(=O)n(-c2ccccc2)n1C` [Formula I: Ph, CH3, CH2 CH3, SCN, 3-ethyl-2-methyl-5-oxo-1-phenyl-3-pyrazolin-4-yl thiocyanate], the IC50 in test [1] (Table I, Formula I) turned out to be 31.7 µM; on CRF receptor (setting [2]) it was 19.1 µM.

Turning to `Cc1ccc(-n2c(=O)c(SC#N)c(C)n2C)cc1` [Formula I: 4-CH3 Ph, CH3, CH3, SCN, 2,3-dimethyl-5-oxo-1-(4-methylphenyl)-3-pyrazolin-4-yl thiocyanate], the IC50 in test [1] (Table I, Formula I) is 9.1 µM; on CRF receptor (setting [2]) it was 8.6 µM.

With `CCn1c(C)c(SC#N)c(=O)n1CC` [Formula I: C2 H5, C2 H5, CH3, SCN, 1,2-diethyl-3-methyl-5-oxo-3-pyrazolin-4-yl thiocyanate], the IC50 in test [1] (Table I, Formula I) is 29.4 µM; at CRF receptor (setting [4]), 111 µM.

Consider `Cc1c(SC#N)c(=O)[nH]n1-c1ccc([N+](=O)[O-])cc1` [Formula I: H, 4-NO2 Ph, CH3, SCN], for which the IC50 was determined as 69.3 µM in test [1] (Table I, Formula I) and 32 µM on CRF receptor (setting [2]).

With `Cc1c(SC#N)c(=O)n(-c2ccc(I)cc2)n1C` [Formula I: 4-IPh, CH3, CH3, SCN, 2,3-dimethyl-5-oxo-1-(4-iodophenyl)-3-pyrazolin-4-yl thiocyanate], at CRF receptor (setting [2]), the IC50 was found to be 6.5 µM.

Consider `Cc1c(SC#N)c(=O)n(-c2ccccc2)n1-c1ccccc1` [Formula I: Ph, Ph, CH3, SCN, 3-methyl-5-oxo-1,2-phenyl-3-pyrazolin-4-yl thiocyanate], for which the IC50 in test [1] (Table I, Formula I) was determined as 6.1 µM; on CRF receptor (setting [2]), 16.1 µM.

Turning to `CCn1c(C)c(SSc2c(C)n(CC)n(-c3ccccc3)c2=O)c(=O)n1-c1ccccc1` [Formula II: Ph, C2 H5, CH3, 2-ethyl-3-methyl-5-oxo-1-phenyl-3-pyrazolin-4-yl disulfide], the IC50 in test [1] (setting [5]) was found to be 1 µM; on CRF receptor (setting [3]), 4.8 µM.

As for `CCc1c(SC#N)c(=O)n(-c2ccc(OC)cc2)n1C` [Formula I: 4-OMePh, CH3, C2 H5, SCN], the IC50 was 11.9 µM in test [1] (Table I, Formula I) and 9.3 µM on CRF receptor (setting [2]).

On to `CC(=O)Sc1c(C)n(C)n(-c2ccccc2)c1=O` [Formula I: Ph, CH3, CH3, SAc, 2,3-dimethyl-5-oxo-1-phenyl-3-pyrazolin-4-yl thioacetate], for which the IC50 was found to be 2.9 µM in test [1] (Table I, Formula I) and 13.7 µM at CRF receptor (setting [2]).

For `Cc1c(SC#N)c(=O)n(-c2ccc3ccccc3c2)n1C` [Formula I: 2-Naphthyl, CH3, CH3, SCN, 2,3-dimethyl-1-naphthyl-5-oxo-3-pyrazolin-4-yl thiocyanate], the IC50 on CRF receptor (setting [2]) was 3.8 µM.

Consider `CCn1c(C)c(SC#N)c(=O)n1-c1ccccc1` [Formula I: Ph, C2 H5, CH3, SCN, 2-ethyl-3-methyl-5-oxo-1-phenyl-3-pyrazolin-4-yl thiocyanate], for which the IC50 turned out to be 6.5 µM in test [1] (Table I, Formula I) and 12.2 µM at CRF receptor (setting [2]).

With `Cc1c(SSc2c(C)n(C)n(-c3ccc4ccccc4c3)c2=O)c(=O)n(-c2ccc3ccccc3c2)n1C` [Formula II: 2-Naphthyl, CH3, CH3, HCl, 2,3-dimethyl-1-naphthyl-5-oxo-3-pyrazolin-4-yl disulfide], on CRF receptor (setting [3]), the IC50 stood at 3.3 µM.

Consider `CCn1c(C)c(SC#N)c(=O)n1-c1ccc([N+](=O)[O-])cc1` [Formula I: 4-NO2 Ph, C2 H5, CH3, SCN, 2-ethyl-3-methyl-5-oxo-1-(4-nitrophenyl)-3-pyrazolin-4-yl thiocyanate], for which the IC50 in test [1] (Table I, Formula I) was determined as 2 µM; at CRF receptor (setting [2]) it was 5.7 µM.

Take `CCn1c(C)c(SSc2c(C)n(CC)n(-c3ccc(Cl)c(Cl)c3)c2=O)c(=O)n1-c1ccc(Cl)c(Cl)c1` [Formula II: 3,4-Cl2 Ph, C2 H5, CH3, 2-ethyl-3-methyl-5-oxo-1-(3,4-dichlorophenyl)-3-pyrazolin-4-yl disulfide]: the IC50 in test [1] (setting [5]) came to 4.3 µM; at CRF receptor (setting [3]), 2.9 µM.

Regarding `CCc1c(SC#N)c(=O)n(CC)n1CC` [Formula I: C2 H5, C2 H5, C2 H5, SCN, 1,2,3-triethyl-5-oxo-3-pyrazolin-4-yl thiocyanate], the IC50 is 45 µM in test [1] (Table I, Formula I) and 67 µM on CRF receptor (setting [2]).

For the molecule `Cn1c(CN2CCOCC2)c(SC#N)c(=O)n1-c1ccccc1` [Formula I: Ph, CH3, MorCH2, SCN, 2-methyl-3-mopholinomethyl-5-oxo-1-phenyl-3-pyrazolin-4-yl thiocyanate], the IC50 at CRF receptor (setting [2]) is 39.8 µM.

Take `Cn1c(CN2CCOCC2)c(SSc2c(CN3CCOCC3)n(C)n(-c3ccccc3)c2=O)c(=O)n1-c1ccccc1` [Formula II: Ph, CH3, MorCH2, 2HCl, 2-methyl-3-morpholinylmethyl-5-oxo-1-phenyl-3-pyrazolin-4-yl disulfide]: the IC50 at CRF receptor (setting [3]) turned out to be 8.2 µM.

Source of the values: patent publication US5063245A, “Corticotropin-releasing factor antagonism compounds” (Nova Pharmaceutical Corporation, priority 1990, dated 1991).
